As a reminder, the Km is the concentration of substrate that gives half-maximal velocity.

The first data set concerns bilirubin oxidase.
Assay: not given
Particulars: additive (metal ion, EDTA) 1 mM; activity without addition = 100; 10 min. In kind it is biochemical, Penicillium janthinellum.
Turning to `Cl.N` [NH4 Cl], the “Relative Acty. (relative enzyme activity with additive)” value is given as 108%.

With `[Cl][Cu][Cl]` [CuCL2], the “Relative Acty. (relative enzyme activity with additive)” value is reported as 0%.

For the molecule `[Cl][Ni][Cl]` [NiCl2], the “Relative Acty. (relative enzyme activity with additive)” value worked out at 43%.

Consider `[N-]=[N+]=[N-].[Na+]` [NaN3], for which the “Relative Acty. (relative enzyme activity with additive)” value is 106%.

For the molecule `[Cl][Al]([Cl])[Cl]` [AlCl3], the “Relative Acty. (relative enzyme activity with additive)” value is recorded as 88%.

In the case of `[Cl][Pb][Cl]` [PbCl2], the “Relative Acty. (relative enzyme activity with additive)” value was 377%.

In the case of `[Ba+2].[Cl-].[Cl-]` [BaCl2], the “Relative Acty. (relative enzyme activity with additive)” value is given as 49%.

Turning to `[Ca+2].[Cl-].[Cl-]` [CaCl2], the “Relative Acty. (relative enzyme activity with additive)” value is on record as 31%.

Turning to `[Cl-].[K+]` [KCl], the “Relative Acty. (relative enzyme activity with additive)” value came to 106%.

Consider `[Cl-].[Cl-].[Co+2]` [CoCl2], for which the “Relative Acty. (relative enzyme activity with additive)” value is given as 0%.

Regarding `[Cl][Mn][Cl]` [MnCl2], the “Relative Acty. (relative enzyme activity with additive)” value is on record as 10%.

In the case of `[Cl-].[Cl-].[Mg+2]` [MgCl2], the “Relative Acty. (relative enzyme activity with additive)” value came to 96%.

For the molecule `[Cl-].[Cl-].[Zn+2]` [ZnCl2], the “Relative Acty. (relative enzyme activity with additive)” value was determined as 60%.

On to `[Cl][Fe]([Cl])[Cl]` [FeCl3], for which the “Relative Acty. (relative enzyme activity with additive)” value is given as 113%.

Consider `[Cl-].[Cs+]` [CsCl], for which the “Relative Acty. (relative enzyme activity with additive)” value was 139%.

Consider Triazole, for which the “Relative Acty. (relative enzyme activity with additive)” value stood at 105%.

Staying with this data set, now noted: bilirubin oxidase, 10 min.
On to `CCCCCCCCCCCCCCCC[N+](C)(C)C.[Cl-]` [CTMC, Cetyl trimethylammonium chloride], for which the “Relative Acty. (relative enzyme activity with additive)” value stood at 316%.

As to `CCCCCCCCCCCCCCCC[N+](C)(C)C.[Br-]` [CTMB, Cetyl trimethylammonium bromide], the “Relative Acty. (relative enzyme activity with additive)” value is on record as 277%.

The same data set, now with this note: bilirubin oxidase, 10 min, 1000 µM.
For the molecule `[Cl-].[Li+]` [LiCl], the “Relative Acty. (relative enzyme activity with additive)” value is listed as 112%.

As to `[Cl-].[Na+]` [NaCl], the “Relative Acty. (relative enzyme activity with additive)” value is on record as 106%.

As to `O=C(O)CN(CCN(CC(=O)O)CC(=O)O)CC(=O)O` [EDTA], the “Relative Acty. (relative enzyme activity with additive)” value stood at 102%.

For `NO` [Hydroxylamine], the “Relative Acty. (relative enzyme activity with additive)” value is on record as 108%.

Still in this data set, the particulars now being: metal ion 1 mM or surfactant 0.05%.
Regarding `[Cl][Cu][Cl]` [CuCL2], the “Effect of additive on enzyme activity (in words)” value (shortened to “Effect of additive”) is “inhibited”.

For `CCCCCCCCCCCCCCCC[N+](C)(C)C.[Cl-]` [CTMC, Cetyl trimethylammonium chloride], the “Effect of additive” value is “accelerated considerably”.

As for `[Cl][Pb][Cl]` [PbCl2], the “Effect of additive” value is recorded as “accelerated considerably”.

For the molecule `[Cl-].[Cl-].[Co+2]` [CoCl2], the “Effect of additive” value is listed as “inhibited”.

With `[Cl][Hg][Cl]` [HgCL2], the “Effect of additive” value was “accelerated considerably”.

Another data set concerns bilirubin oxidase. The experiment in a line: Km value determination. In kind it is biochemical, Penicillium janthinellum. Particulars: 0.1 ml enzyme solution, 2-20 mg bilirubin substrate solutions.
With `C=CC1=C(C)/C(=C/c2[nH]c(Cc3[nH]c(/C=C4\NC(=O)C(C)=C4C=C)c(C)c3CCC(=O)O)c(CCC(=O)O)c2C)NC1=O` [Bilirubin], the Km was 110 µM.

The subject of a further data set is bilirubin oxidase. The experiment in a line: Substrate specificity by oxygen consumption rate (electrode oxygen meter). Particulars: 0.1 mM substrate, 0.1 mM HgCl2 added. It is filed as biochemical, Penicillium janthinellum. As to the method: The intrinsic substrate specificity for various substrates was estimated based upon the oxygen consumption rate using an electrode oxygen meter. The measurements were effected under an addition of HgCl2 to the substrate solution up to a concentration of 0.1 mM. For the measurements, 0.1 mM solution of the substrate with addition of 0.1 ml of the enzyme solution as employed in the determination of the enzyme activity was used. […] Thus, it was confirmed that the bilirubin oxidase according to the present invention has a very high specificity to bilirubin.
In the case of `Oc1ccccc1` [Phenol], the “Relative Activity (substrate specificity)” value (from here on “Relative Activity”) is 0%.

For Hemoglobin, the “Relative Activity” value was 0%.

Turning to `Oc1ccc(O)cc1` [Hydroquinone], the “Relative Activity” value is recorded as 0%.

In the case of Chlorophyll, the “Relative Activity” value turned out to be 0%.

As to `C=CC1=C(C)/C(=C/c2[nH]c(Cc3[nH]c(/C=C4\NC(=O)C(C)=C4C=C)c(C)c3CCC(=O)O)c(CCC(=O)O)c2C)NC1=O` [Bilirubin], the “Relative Activity” value was determined as 100%.

`CC1=C(CCC(=O)O)c2cc3[nH]c(cc4nc(cc5[nH]c(cc1n2)c(C)c5C(C)O)C(C)=C4C(C)O)c(C)c3CCC(=O)O` (stereo not shown) [Hematoporphyrin]: the “Relative Activity” value was 0%.

Regarding `Cc1c(N)c(=O)n(-c2ccccc2)n1C` [4-Aminoantipyrin], the “Relative Activity” value amounted to 0%.

`Oc1cccc(O)c1O` [Pyrogallol]: the “Relative Activity” value is listed as 0%.

Chlorophyllin: the “Relative Activity” value was found to be 0%.

For `C=CC1=C(C)/C(=C/C2=NC(=C\c3[nH]c(/C=C4\NC(=O)C(C)=C4C=C)c(C)c3CCC(=O)O)/C(CCC(=O)O)=C2C)NC1=O` [Biliverdin], the “Relative Activity” value came out at 0%.

In the case of Hemin, the “Relative Activity” value is recorded as 0%.

In the case of `Oc1ccccc1O` [Catechol], the “Relative Activity” value is reported as 0%.

For the origin of these results see patent US4985360A (priority 1987, dated 1991).
